Tests used:
full length human TREX1 = molecular target: T1, full length human TREX1 (Homo sapiens, UniProt Q9NSU2); assay: hTREX1 Biochemical Assay (fluorescence, dsDNA substrate degradation); conditions: biochemical, read-out: hTREX1 IC50
T1 construct: N-terminally His-Tev tagged full length human TREX1; made in house; host or cells: E. coli
T1 sequence (Q9NSU2 1-314): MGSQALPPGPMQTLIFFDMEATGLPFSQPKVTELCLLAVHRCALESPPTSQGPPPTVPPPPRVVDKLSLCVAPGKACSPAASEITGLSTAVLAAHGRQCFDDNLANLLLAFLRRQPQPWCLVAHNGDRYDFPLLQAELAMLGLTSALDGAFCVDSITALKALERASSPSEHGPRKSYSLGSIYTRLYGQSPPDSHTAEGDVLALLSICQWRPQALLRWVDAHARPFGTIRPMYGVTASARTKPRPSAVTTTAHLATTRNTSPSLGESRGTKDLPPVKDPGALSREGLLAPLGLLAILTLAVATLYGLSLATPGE
Outline: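 Cleavage of 60 nM TEX615/quencher-labelled dsDNA in pH 7.4 Tris buffer with 5 mM MgCl2, 1.0% DMSO, run 18 hours at 25° C, EDTA-quenched; fluorescence read-out.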

full length mouse TREX1 = molecular target: T2, full length mouse TREX1 (Mus musculus, UniProt Q91XB0); assay: mTREX1 Biochemical Assay (fluorescence, dsDNA substrate degradation); conditions: biochemical, read-out: mTREX1 IC50
T2 construct: N-terminally His-Tev tagged full length mouse TREX1; made in house; host or cells: E. coli
T2 sequence (Q91XB0 1-314): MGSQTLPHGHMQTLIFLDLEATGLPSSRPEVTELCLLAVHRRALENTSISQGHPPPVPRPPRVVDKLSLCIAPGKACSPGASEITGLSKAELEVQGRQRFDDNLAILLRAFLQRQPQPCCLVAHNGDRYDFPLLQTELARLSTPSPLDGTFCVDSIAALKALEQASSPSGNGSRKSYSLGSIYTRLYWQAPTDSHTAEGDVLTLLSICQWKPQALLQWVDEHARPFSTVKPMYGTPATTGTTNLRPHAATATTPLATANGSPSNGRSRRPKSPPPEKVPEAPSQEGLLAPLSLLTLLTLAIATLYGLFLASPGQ
Outline: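 Reaction run 18 h at 25° C. with 60 nM TEX615/quencher-labelled dsDNA and 6 pM mouse TREX1 in Tris buffer (pH 7.4, 5 mM MgCl2, 1.0% DMSO), enzyme having sat 4 h with compound across 10 concentrations. EDTA quench; substrate degradation measured as fluorescence increase.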

[1] = molecular target: T3, human TREX2 (residues M44-A279) (Homo sapiens, UniProt Q9BQ50); assay: hTREX2 Biochemical Assay (fluorescence, dsDNA substrate degradation); conditions: biochemical selectivity for hTREX1 vs hTREX2
T3 construct: human TREX2 (residues M44-A279, expressed in E. coli); made in house; host or cells: E. coli
T3 sequence (Q9BQ50 44-279 isoform Q9BQ50-1): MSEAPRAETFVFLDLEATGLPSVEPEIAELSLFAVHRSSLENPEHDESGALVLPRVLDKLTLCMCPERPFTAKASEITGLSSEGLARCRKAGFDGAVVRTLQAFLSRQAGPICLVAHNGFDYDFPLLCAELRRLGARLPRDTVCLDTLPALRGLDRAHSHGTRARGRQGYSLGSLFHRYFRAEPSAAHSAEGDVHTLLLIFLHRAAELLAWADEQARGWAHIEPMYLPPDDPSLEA
Outline: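 N-His-Tev E. coli enzyme (50 pM) pre-incubated with compound 4 h at 25 °C, then 60 nM TEX615/quencher dsDNA added; 18 h at 25 °C, pH 7.4 Tris buffer with 5 mM MgCl2, 1.0% DMSO. EDTA-quenched; fluorescence 570 ex/615 em from liberated fluorophore, 10-point dose-response.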

| SMILES | IC50 (full length human TREX1) | IC50 (full length mouse TREX1) | hTREX1 vs hTREX2 selectivity [1] |
| --- | --- | --- | --- |
| Cc1nn(C)c(C)c1C(c1cc(F)ccc1C#N)C(C)c1nc(C(=O)Nc2cnoc2)c(O)c(=O)n1C (single isomer, unassigned) [Example 109 D1E2] | > 0.01 µM | > 0.01 µM | A (A = <25 fold selective for hTREX1) |
| COCCn1nc(C)c(C(c2cc(F)ccc2C#N)C(C)c2nc(C(=O)Nc3cnoc3)c(O)c(=O)n2C)c1C (single isomer, unassigned) [Example 110 D1E2] | > 0.01 µM | > 0.01 µM | A (A = <25 fold selective for hTREX1) |
| Cc1cc(C(c2cc(F)ccc2C#N)C(C)c2nc(C(=O)Nc3cnoc3)c(O)c(=O)n2C)n(C)n1 (single isomer, unassigned) [Example 111 D2E2] | > 0.01 µM | > 0.01 µM | A (A = <25 fold selective for hTREX1) |
| Cc1cc(C(c2cc(F)ccc2Cl)C(C)c2nc(C(=O)Nc3cnoc3)c(O)c(=O)n2C)n(C)n1 (single isomer, unassigned) [Example 113 D1E2] | > 0.01 µM | > 0.01 µM | A (A = <25 fold selective for hTREX1) |
| Cc1cc(C(c2cc(F)ccc2Cl)C(C)c2nc(C(=O)Nc3cnoc3)c(O)c(=O)n2C)n(C)n1 (single isomer, unassigned) [Example 113 D2E1] | > 0.01 µM | > 0.01 µM | A (A = <25 fold selective for hTREX1) |
| Cc1cnc(C(c2cc(F)ccc2C#N)C(C)c2nc(C(=O)Nc3cnoc3)c(O)c(=O)n2C)cn1 (single isomer, unassigned) [Example 115 D1E1] | > 0.01 µM | > 0.01 µM | A (A = <25 fold selective for hTREX1) |
| Cc1cnc(C(c2cc(F)ccc2Cl)C(C)c2nc(C(=O)Nc3cnoc3)c(O)c(=O)n2C)cn1 (single isomer, unassigned) [Example 117 D1E1] | > 0.01 µM | > 0.01 µM | A (A = <25 fold selective for hTREX1) |
| Cc1cnc(C(c2cc(F)ccc2Cl)C(C)c2nc(C(=O)Nc3cnoc3)c(O)c(=O)n2C)cn1 (single isomer, unassigned) [Example 117 D2E2] | > 0.01 µM | > 0.01 µM | A (A = <25 fold selective for hTREX1) |
| Cc1cnc(C)c(C(c2cc(F)ccc2C#N)C(C)c2nc(C(=O)Nc3cnoc3)c(O)c(=O)n2C)n1 (single isomer, unassigned) [Example 119 DIE1] | < 0.001 µM | 0.001 to 0.01 µM | C (C = >50 fold selective for hTREX1) |
| Cc1cnc(C)c(C(c2ccccc2Cl)C(C)c2nc(C(=O)Nc3cnoc3)c(O)c(=O)n2C)n1 (single isomer, unassigned) [Example 120 D1E2] | > 0.01 µM | > 0.01 µM | A (A = <25 fold selective for hTREX1) |
| Cc1cnc(C)c(C(c2cc(F)ccc2Cl)C(C)c2nc(C(=O)Nc3cnoc3)c(O)c(=O)n2C)n1 (single isomer, unassigned) [Example 121 D1E2] | > 0.01 µM | > 0.01 µM | A (A = <25 fold selective for hTREX1) |
| Cc1nc(C)c(C(c2ccccc2C#N)C(C)c2nc(C(=O)Nc3cnoc3)c(O)c(=O)n2C)nc1C (single isomer, unassigned) [Example 122 D1E2] | > 0.01 µM | > 0.01 µM | B (B = 25 to 50-fold selective for hTREX1) |
| Cc1ncc(C(c2cc(F)ccc2C#N)C(C)c2nc(C(=O)Nc3cnoc3)c(O)c(=O)n2C)nc1C (single isomer, unassigned) [Example 124 D1E1] | > 0.01 µM | > 0.01 µM | A (A = <25 fold selective for hTREX1) |
| Cc1ncc(C(c2cc(F)ccc2C#N)C(C)c2nc(C(=O)Nc3cnoc3)c(O)c(=O)n2C)nc1C (single isomer, unassigned) [Example 124 D2E1] | > 0.01 µM | > 0.01 µM | A (A = <25 fold selective for hTREX1) |
| Cc1ncc(C(c2cc(F)ccc2C#N)C(C)c2nc(C(=O)Nc3cnoc3)c(O)c(=O)n2C)nc1C (single isomer, unassigned) [Example 124 D2E2] | > 0.01 µM | > 0.01 µM | A (A = <25 fold selective for hTREX1) |
| Cc1ncc(C(c2ccccc2Cl)C(C)c2nc(C(=O)Nc3cnoc3)c(O)c(=O)n2C)nc1C (single isomer, unassigned) [Example 125 D1E1] | > 0.01 µM | > 0.01 µM | A (A = <25 fold selective for hTREX1) |
| CC(c1nc(C(=O)Nc2cnoc2)c(O)c(=O)n1C)C(c1ccccc1Cl)c1cn(C)nc1F (single isomer, unassigned) [Example 130 D1E2] | > 0.01 µM | > 0.01 µM | A (A = <25 fold selective for hTREX1) |
| Cc1cnn(C(c2ccccc2Cl)C(C)c2nc(C(=O)Nc3cnoc3)c(O)c(=O)n2C)c1 (single isomer, unassigned) [Example 133 D1E1] | > 0.01 µM | > 0.01 µM | A (A = <25 fold selective for hTREX1) |

Next, values leading:

| IC50 (full length human TREX1) | IC50 (full length mouse TREX1) | hTREX1 vs hTREX2 selectivity [1] | SMILES |
| --- | --- | --- | --- |
| > 0.01 µM | > 0.01 µM | A (A = <25 fold selective for hTREX1) | Cc1cc(C(c2cc(F)ccc2C#N)C(C)c2nc(C(=O)Nc3cnoc3)c(O)c(=O)n2C)nn1C (single isomer, unassigned) [Example 112 D1E2] |
| > 0.01 µM | > 0.01 µM | A (A = <25 fold selective for hTREX1) | Cc1cc(C(c2cc(F)ccc2C#N)C(C)c2nc(C(=O)Nc3cnoc3)c(O)c(=O)n2C)nn1C (single isomer, unassigned) [Example 112 D2E2] |
| > 0.01 µM | > 0.01 µM | A (A = <25 fold selective for hTREX1) | CC(c1nc(C(=O)Nc2cnoc2)c(O)c(=O)n1C)C(c1cnc(C(F)(F)F)cn1)c1ccccc1C#N (single isomer, unassigned) [Example 118 D1E2] |
| > 0.01 µM | > 0.01 µM | A (A = <25 fold selective for hTREX1) | CC(c1nc(C(=O)Nc2cnoc2)c(O)c(=O)n1C)C(c1cnc(C(F)(F)F)cn1)c1ccccc1C#N (single isomer, unassigned) [Example 118 D2E2] |
| > 0.01 µM | > 0.01 µM | A (A = <25 fold selective for hTREX1) | Cc1cnc(C(c2ccccc2C#N)C(C)c2nc(C(=O)Nc3cnoc3)c(O)c(=O)n2C)c(C)n1 (single isomer, unassigned) [Example 123 D1E2] |
| 0.001 to 0.01 µM | > 0.01 µM | C (C = >50 fold selective for hTREX1) | Cc1cnc(C(c2ccccc2C#N)C(C)c2nc(C(=O)Nc3cnoc3)c(O)c(=O)n2C)c(C)n1 (single isomer, unassigned) [Example 123 D2E1] |
| > 0.01 µM | > 0.01 µM | A (A = <25 fold selective for hTREX1) | Cc1cnc(C(c2ccccc2C#N)C(C)c2nc(C(=O)Nc3cnoc3)c(O)c(=O)n2C)c(C)n1 (single isomer, unassigned) [Example 123 D2E2] |
| > 0.01 µM | > 0.01 µM | A (A = <25 fold selective for hTREX1) | CC(c1nc(C(=O)Nc2cnoc2)c(O)c(=O)n1C)C(c1ccccc1C#N)c1nnnn1C (single isomer, unassigned) [Example 131 D1E1] |
| > 0.01 µM | > 0.01 µM | C (C = >50 fold selective for hTREX1) | CC(c1nc(C(=O)Nc2cnoc2)c(O)c(=O)n1C)C(c1ccccc1C#N)c1nnnn1C (single isomer, unassigned) [Example 131 D2E1] |
| > 0.01 µM | > 0.01 µM | A (A = <25 fold selective for hTREX1) | Cc1ccn(C(c2ccccc2C#N)C(C)c2nc(C(=O)Nc3cnoc3)c(O)c(=O)n2C)n1 (single isomer, unassigned) [Example 132 D1E1] |
